This passage reports IC50 results from patent publication US9115101B2 (Genentech, Inc., priority 2012, dated 2015).

The assay concerns the target T1, RORc ligand binding domain (Homo sapiens, UniProt P51449).
T1 construct: host or cells: E. coli
T1 sequence (P51449 269-508 limits assumed): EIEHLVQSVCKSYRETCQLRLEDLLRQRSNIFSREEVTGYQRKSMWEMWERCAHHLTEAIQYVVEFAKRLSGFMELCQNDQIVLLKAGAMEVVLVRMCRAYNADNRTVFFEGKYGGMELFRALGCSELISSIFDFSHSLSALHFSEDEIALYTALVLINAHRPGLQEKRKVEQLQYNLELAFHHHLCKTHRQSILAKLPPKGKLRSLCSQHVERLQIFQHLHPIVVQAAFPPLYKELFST
The assay can be described thus: In Vitro RORc Ligand Binding Assay (25-[3H]hydroxycholesterol radioligand filtration). The settings on record: read-out: RORc IC50.

Setting [1] is: In Vitro RORc Ligand Binding Assay, Table 4.

Where two headings read alike, the source gives them in different places.

As to `C[C@H]1CCC(c2ccccc2)S(=O)(=O)N1Cc1ccc(C(=O)N2CCOC(C(=O)N(C)C)C2)cc1` (stereo partly drawn) [Example 293, 4-[4-((3S)-Methyl-1,1-dioxo-6-phenyl-[1,2]thiazinan-2-ylmethyl)-benzoyl]-morpholine-2-carboxylic acid dimethylamide], the half-maximal inhibitory concentration (IC50) under setting [1] is 8310 nM.
With `CC(=O)N1CCN(c2ccc(CN3C4CCCC4CC(c4ccccc4)S3(=O)=O)c(F)c2)CC1` (single isomer, unassigned) [Example 248, 1-(4-(4-((2,2-dioxido-3-phenylhexahydro-cyclopenta[c][1,2]thiazin-1(3H)-yl)methyl)-3-fluorophenyl)piper-azin-1-yl)ethanone], the IC50 under setting [1] was determined as 7 nM.
On to `CNC(=O)C1CN(C(=O)c2ccc(CN3[C@@H](C)CCC(c4ccccc4)S3(=O)=O)cc2)CCO1` (stereo partly drawn) [Example 299, 4-[4-((3S)-Methyl-1,1-dioxo-6-phenyl-[1,2]thiazinan-2-ylmethyl)-benzoyl]-morpholine-2-carboxylic acid methylamide], for which the IC50 under setting [1] is 4930 nM.
Regarding `C[C@H]1CCC(c2ccccc2)S(=O)(=O)N1Cc1ccc(C(=O)NCCC2CCCN(S(C)(=O)=O)C2)cc1` (stereo partly drawn) [Example 371, N-[2-(1-Methanesulfonyl-piperidin-3-yl)-ethyl]-4-((3S)-methyl-1,1-dioxo-6-phenyl-[1,2]thiazinan-2-ylmethyl)-benzamide], the 50% inhibitory concentration (IC50) under setting [1] was 3630 nM.
Consider `CC(=O)N1CCN(c2ccc(CN3CCCCC(c4ccccc4)S3(=O)=O)c(F)c2)CC1` (single isomer, unassigned) [Example 16, 1-{4-[4-(1,1-Dioxo-7-phenyl-[1,2]thiazepan-2-ylmethyl)-3-fluoro-phenyl]-piperazin-1-yl}-ethanone], for which the IC50 under setting [1] was 32 nM.
Regarding `C[C@H]1CCC(c2ccccc2)S(=O)(=O)N1Cc1ccc(N2CCC3(CC2)COC3)cc1F` (single isomer, unassigned) [Example 100], the IC50 under setting [1] was determined as 12 nM.
Consider `CC(=O)N1CCN(c2ccc(CN3[C@H](C)CCC(c4ccccc4)S3(=O)=O)cn2)CC1` (single isomer, unassigned) [Example 48], for which the IC50 under setting [1] was found to be 1500 nM.
Same read-out and setting: next, `C[C@@H]1CCC(c2ccccc2)S(=O)(=O)N1Cc1ccc(OC2CCN(S(C)(=O)=O)CC2)cc1` (stereo partly drawn) [Example 52, (3R)-3-Methyl-2-(4-((1-(methylsulfonyl)piperidin-4-yl)oxy)benzyl)-6-phenyl-1,2-thiazinane 1,1-dioxide]: 20 nM; `C[C@H]1CCC(c2ccccc2)S(=O)(=O)N1Cc1ccc(N2CCC(c3n[nH]c(=O)o3)CC2)cc1F` (single isomer, unassigned) [Example 143]: 44 nM.
Take `C[C@H]1CCC(c2ccccc2)S(=O)(=O)N1Cc1ccc(N2CCN3C(=O)OCC3C2)cc1F` (stereo partly drawn) [Example 400, 7-[3-Fluoro-4-((3S)-methyl-1,1-dioxo-6-phenyl-[1,2]thiazinan-2-ylmethyl)-phenyl]-hexahydro-oxazolo[3,4-a]pyrazin-3-one]: the IC50 came out at 95 nM.
On to `CC(=O)N1CCN(c2ccc(CN3[C@@H](C)CCC(c4ccc(Cl)cc4)S3(=O)=O)c(F)c2)CC1` (single isomer, unassigned) [Example 174], for which the IC50 under setting [1] is 77 nM.
As to `N#CCC(=O)N1CCN(c2ccc(CN3CCCCC(c4ccccc4)S3(=O)=O)c(F)c2)CC1` (single isomer, unassigned) [Example 303, 3-{4-[4-(1,1-Dioxo-7-phenyl-[1,2]thiazepan-2-ylmethyl)-3-fluoro-phenyl]-piperazin-1-yl}-3-oxo-propionitrile], under setting [1], the IC50 is 86 nM.
In the case of `CC(=O)N1CCN(c2ccc(CN3[C@@H](C)CCC(c4ccccc4)S3(=O)=O)c(F)c2)C[C@H]1C(=O)NC(C)C` (stereo partly drawn) [Example 394, (S)-1-Acetyl-4-[3-fluoro-4-((3S)-methyl-1,1-dioxo-6-phenyl-[1,2]thiazinan-2-ylmethyl)-phenyl]-piperazine-2-carboxylic acid isopropylamide], the IC50 under setting [1] stood at 3180 nM.
Regarding `N#CCC(=O)N1CCN(c2ccc(CN3CCCCC(c4ccccc4)S3(=O)=O)cc2)CC1` (single isomer, unassigned) [Example 312, 3-{4-[4-(1,1-Dioxo-7-phenyl-[1,2]thiazepan-2-ylmethyl)-phenyl]-piperazin-1-yl}-3-oxo-propionitrile], the IC50 under setting [1] is 926 nM.
Consider `CC(=O)N1CCN(c2ccc(CN3CCCCC(c4ccccc4)S3(=O)=O)cc2)CC1` (single isomer, unassigned) [Example 307, 1-{4-[4-(1,1-Dioxo-7-phenyl-[1,2]thiazepan-2-ylmethyl)-phenyl]-piperazin-1-yl}-ethanone], for which, under setting [1], the IC50 came to 227 nM.
For the molecule `C[C@H]1CCC(c2ccccc2)S(=O)(=O)N1Cc1ccc(N2CCC(c3cn[nH]c3)CC2)cc1F` (single isomer, unassigned) [Example 242], the IC50 under setting [1] turned out to be 4 nM.
Regarding `CC(=O)N1CCN(c2ccc(CN3[C@@H](C)COCC(c4ccccc4)S3(=O)=O)c(F)c2)CC1` (single isomer, unassigned) [Example 24], under setting [1], the IC50 is 182 nM.
For `C[C@H]1CCC(c2ccccc2)S(=O)(=O)N1Cc1ccc(N2CCN(C=O)CC2)cc1F` (stereo partly drawn) [Example 115, 4-[3-Fluoro-4-((3S)-3-methyl-1,1-dioxo-6-phenyl-[1,2]thiazinan-2-ylmethyl)-phenyl]-piperazine-1-carbaldehyde], the 50% inhibitory concentration (IC50) under setting [1] was found to be 73 nM.
Turning to `CN/C(=N\C#N)N1CCN(c2ccc(CN3[C@@H](C)CCC(c4ccccc4)S3(=O)=O)c(F)c2)CC1` (stereo partly drawn) [Example 124, 1-(4-{3-Fluoro-4-[(3S)-6-phenyl-3-methyl-1,1-dioxo-[1,2]thiazinan-2-ylmethyl]-phenyl}-piperazin-1-yl)-(Z)-N′-cyano-N-methylacetimid-amide], under setting [1], the IC50 is 10 nM.
Consider `C[C@H]1CCC(c2ccccc2)S(=O)(=O)N1Cc1ccc(N2CCC(/C(N)=N/O)CC2)cc1F` (stereo partly drawn) [Example 233, 1-[3-Fluoro-4-((3S)-methyl-1,1-dioxo-6-phenyl-[1,2]thiazinan-2-ylmethyl)-phenyl]-N-hydroxy-piperidine-4-carboxamidine], for which the IC50 under setting [1] was found to be 39 nM.
On to `C[C@H]1CCC(c2ccccc2)S(=O)(=O)N1Cc1ccc(N2CCC(c3cc(O)no3)CC2)cc1F` (single isomer, unassigned) [Example 153], for which the IC50 under setting [1] was determined as 55 nM.
As to `COc1cc(N2CCN(C(C)=O)CC2)ccc1CN1[C@@H](C)CCC(c2ccccc2)S1(=O)=O` (single isomer, unassigned) [Example 160], the IC50 under setting [1] was determined as 207 nM.
Consider `C[C@@H]1CCC(c2ccccc2)S(=O)(=O)N1Cc1ccc(OC2CCN(S(C)(=O)=O)CC2)nc1` (single isomer, unassigned) [Example 50], for which the IC50 under setting [1] was found to be 168 nM.
With `CON(C)C(=O)C1CCN(c2ccc(CN3[C@@H](C)CCC(c4ccccc4)S3(=O)=O)c(F)c2)CC1` (single isomer, unassigned) [Example 147], under setting [1], the IC50 is 1780 nM.
In the case of `C[C@H]1CCC(c2ccccc2)S(=O)(=O)N1Cc1ccc(NC2CCN(S(C)(=O)=O)CC2)c(F)c1` (stereo partly drawn) [Example 236, [2-Fluoro-4-((3S)-methyl-1,1-dioxo-6-phenyl-[1,2]thiazinan-2-ylmethyl)-phenyl]-(1-methanesulfonyl-piperidin-4-yl)-amine], the IC50 under setting [1] stood at 6 nM.
On the same count and under the same terms, the result for `CC(=O)N1CCN(c2ccc(CN3[C@@H](C)CCC(c4ccccc4)S3(=O)=O)cc2)CC1` (single isomer, unassigned) [Example 40] reads 81 nM.

What is called IC50 is the midpoint of a concentration-inhibition curve.
